Measurements as given in patent US5079241A, “Cephalosporin derivatives and pharmaceutical compositions in which they are present” (Sanofi, priority 1987, dated 1992).
Converted amounts (≈) assume the structure as drawn. Like-named read-outs stand apart in the source and are kept apart here.

Assays:
[1] = test system: Escherichia coli C1/Col E1::Tn3; assay: bacteriostatic action in vitro by the dilution method (MIC); assay type: cell-based; conditions: read-out: minimum inhibitory concentrations (MIC)
Description: (§1) The bacteriostatic action was determined in vitro by the dilution method. The study was carried out on both Gram-positive strains and Gram-negative strains.
(§2) The results for various products according to the invention, expressed as minimum inhibitory concentrations (MIC - μg/ml), are collated in Table 3.

[2] = test system: Escherichia coli SOL RL 90; assay: as above; assay type: cell-based; conditions: SOLRL90, read-out: minimum inhibitory concentrations (MIC)
Description: as §1, §2

[3] = test system: Klebsiella pneumoniae R30; assay: as above; assay type: cell-based; conditions: read-out: minimum inhibitory concentrations (MIC)
Description: as §1, §2

[4] = test system: Proteus vulgaris GN 76/C-1; assay: as above; assay type: cell-based; conditions: GN76, read-out: minimum inhibitory concentrations (MIC)
Description: as §1, §2

Providencia 155 = assay: as above; assay type: cell-based; conditions: read-out: minimum inhibitory concentrations (MIC)
Description: as §1, §2

[5] = test system: Pseudomonas aeruginosa NCTC 8203; assay: as above; assay type: cell-based; conditions: NCTC8203, read-out: minimum inhibitory concentrations (MIC)
Description: as §1, §2

Staph. aureus Smith = assay: as above; assay type: cell-based; conditions: Staphylococcus aureus, read-out: minimum inhibitory concentrations (MIC)
Description: as §1, §2

[6] = pharmacokinetic behavior in baboons, 20 mg/kg (Tables 4 and 6); assay type: in vivo; conditions: baboon; for Cmax: read-out: Max plasma concentration; for AUC(0-t) at 6 h: trapezium method; for concentration at 0.5 h: 30 minutes; for concentration at 0.75 h: 45 minutes; for concentration at 1 h: 60 minutes; for concentration at 1.5 h: 90 minutes; for concentration at 2 h: 120 minutes; for concentration at 3 h: 180 minutes; for concentration at 4 h: 240 minutes; for concentration at 5 h: 300 minutes; for dose excreted at 6 h: urine, 6 h (Table 6), read-out: Excretion in the urine
Description: Furthermore, the pharmacokinetic behavior of the products according to the invention was studied in baboons after administration at a dose of 20 mg/kg by intramuscular injection or intravenous injection.
Blood samples taken at various times after administration are used to determine the plasma concentration of the product studied by microbiological assay.
It is thus possible to construct the curve showing the plasma concentration as a function of time, and to determine different pharmacokinetic parameters of the compound studied:
the elimination half-life (t1/2 β) is calculated by the formula [formula] in which β represents the elimination gradient or slope;
the area under the curve (AUC) is determined by the trapezium method.
The plasma concentrations obtained with various products of the invention are collated in Tables 4 and 5. They are expressed in μg/ml.

[7] = protein binding by comparing two standard scales in baboon plasma and phosphate buffer; assay type: in vitro ADME; conditions: baboon plasma vs phosphate buffer (pH 7, 0.03M)
Text: Furthermore, the protein binding is obtained by comparing two standard scales, one being prepared in baboon plasma and the other in phosphate buffer (pH 7, 0.03M).

[8] = plasma, 20 mg/kg, 20 mg/kg (Table 6), read-out: Plasma concentration at 6 h
[9] = plasma, 20 mg/kg, 360 minutes, read-out: plasma concentration

SMILES	MIC [1] [µg/mL]	MIC [2] [µg/mL]	MIC [3] [µg/mL]	MIC [4] [µg/mL]	MIC (Providencia 155) [µg/mL]	MIC [5] [µg/mL]	MIC (Staph. aureus Smith) [µg/mL]	Tmax ([6]; plasma, 20 mg/kg (Table 6)) [h]	Cmax ([6]; plasma, 20 mg/kg (Table 6)) [µg/mL]	AUC(0-t) at 6 h ([6]; plasma, 20 mg/kg (Table 6)) [µg·h/mL]	concentration at 6 h [6, 8] [µg/mL]	concentration at 10 min ([6]; plasma, 20 mg/kg) [µg/mL]	concentration at 20 min ([6]; plasma, 20 mg/kg) [µg/mL]	concentration at 0.5 h ([6]; plasma, 20 mg/kg) [µg/mL]	concentration at 0.75 h ([6]; plasma, 20 mg/kg) [µg/mL]	concentration at 1 h ([6]; plasma, 20 mg/kg) [µg/mL]	concentration at 1.5 h ([6]; plasma, 20 mg/kg) [µg/mL]	concentration at 2 h ([6]; plasma, 20 mg/kg) [µg/mL]	concentration at 3 h ([6]; plasma, 20 mg/kg) [µg/mL]	concentration at 4 h ([6]; plasma, 20 mg/kg) [µg/mL]	other results
CC(C)(O/N=C(\C(=O)NC1C(=O)N2C(C(=O)O)=C(COC(=O)c3ccc(NC(=O)[C@@H](N)CCCN)c(O)c3)CSC12)c1csc(N)n1)C(=O)O (stereo partly shown) [SR 44128]	0.12 (≈ 0.163 µM)	2 (≈ 2.72 µM)	1 (≈ 1.36 µM)	0.12 (≈ 0.163 µM)	1 (≈ 1.36 µM)	2 (≈ 2.72 µM)	8 (≈ 10.9 µM)	2	195	898	104	62.9	115	135	177	188	188	195	169	142	concentration at 5 h ([6]; plasma, 20 mg/kg): 123 µg/mL; concentration at 6 h [6, 9]: 105 µg/mL; dose excreted at 6 h ([6]; 20 mg/kg): 72%; fraction unbound [7]: 0.16
CC(C)(O/N=C(\C(=O)NC1C(=O)N2C(C(=O)O)=C(COC(=O)c3ccc(NC(=O)C(N)CCN)c(O)c3)CSC12)c1csc(N)n1)C(=O)O (stereo not shown) [SR 44130]	0.25 (≈ 0.347 µM)	2 (≈ 2.77 µM)	1 (≈ 1.39 µM)	0.12 (≈ 0.166 µM)	1 (≈ 1.39 µM)	2 (≈ 2.77 µM)	8 (≈ 11.1 µM)	1.5	143	707	90.4	39.1	60.9	81.9	105	122	143	142	138	135	concentration at 5 h ([6]; plasma, 20 mg/kg): 109 µg/mL; concentration at 5.5 h ([6]; plasma, 20 mg/kg, 330 minutes): 93.8 µg/mL; concentration at 6 h [6, 9]: 90.4 µg/mL; dose excreted at 6 h ([6]; 20 mg/kg): 37%; fraction unbound [7]: 0.08
